Common to all, as to assay type: in vivo, pig (Large-White x Landrace)
Assay [1] deals with ilio-spinalis (longissimus dorsi) muscle. Kind of assay: Drip losses of the ilio-spinalis (longissimus dorsi) muscle. Conditions: for Drip loss by water recovery / Drip loss by weight difference: ilio-spinalis muscle, mean ± SD of 20 determinations; for Drip loss by water recovery: 24 h storage at +4° C. in plastic bags; for Drip loss by weight difference: 24 h storage at +4° C.; for Drip loss by water recovery, value in brackets relative to group A (100) / Drip loss by weight difference, value in brackets relative to group A (100): index. As to the method:
(§1) Fifty 28-d old Large-White x Landrace weaner piglets having an initial body weight of 7.9±0.74 kg were used. The animals were allocated into two equal groups (A and B) and housed in cages in sub-groups (two of 8 and one of 9 animals) in an environmentally controlled room. […] Room temperature was initially 27° C. and was lowered weekly by about 2° C. until 21-22° C. Environment humidity percentage throughout the experiment was 50%. The experiments were performed in the facilities of the Centre de Recherche en Nutrition Animate (CRNA), DSM Nutritional Products France, BP 170, 68305 Saint-Louis cedex, France. They have been performed according to the French legal regulations on experiments with live animals.
(§2) Each group of animals was fed either a basal diet with the addition of 2000 IU/kg of vitamin D3 (group A) or the basal diet, without vitamin D3, and supplemented with 50 μg/kg of 25-hydroxycholecalciferol (Rovimix® Hy•D® commercially available from DSM Nutritional Products) (group B).
(§3) At the end of the post-weaning phase the twenty heaviest animals of each group were used for the growing-fattening period. […] Room temperature was 21-22° C. and humidity percentage was 50%.
(§4) The pigs were fed for 87 days a diet supplemented either with 2000 IU/kg of vitamin D3 (group A, animals ingesting during the post-weaning phase 2000 U/kg) or with 50 μg/kg of 25-hydroxycholecalciferol (group B, animals ingesting during the post-weaning phase 50 μg/kg). The basal diet (Table 2) was formulated to meet the animals' requirements according to Henry et al. 1989 In: L'alimentation des animaux domestiques—pore, lapin, volailles INRA), 2ème édition, INRA, Paris, 49-76 and NRC, 1998. Nutrient requirements of swine, 10th revised edition, National Academic Press. Washington DC, U.S.A.
(§5) In one of the mid-carcass, the entire ilio-spinalis muscle (longissimus dorsi) was dissected. Each muscle was weighed and pH was measured immediately and after 24 hours storage at +4° C. The muscles were individually conditioned into inflated plastic bags for water recovery during storage. Percentage of drip loses from muscles was estimated by weight difference and water recovery.
(§6) Statistical treatment of the results involved the calculation of the mean and the standard deviation of the mean as well as a two-factor hierarchical analysis of variance at 95% confidence level.

Assay [2] concerns growing-fattening pig. The experiment in a line: Carcass lean/fat ratio after long-term dietary supplementation of growing-fattening pigs. The note with it: for carcasses' lean/fat ratio, value in brackets relative to group A (100): index, group A (2000 IU/kg D3) = 100; for carcasses' lean/fat ratio: pigs fed supplemented diet (2000 IU/kg D3 or 50 μg/kg 25-OH D3), mean ± SD of 20 determinations. As to the method:
as §1, §2, §3, §4
In the second mid-carcass lean and fat were measured at three different points with a caliper square tool. Muscular depth was measured after dissection of the ilio-spinalis muscle (longissimus dorsi) at the level of the 4th dorsal vertebrae. The sub-cutaneous back fat deposition was measured at the levels of the 4th dorsal and lumbar vertebras. These measures were used to estimate the carcasses' lcan/fat ratio.
as §6

The subject of assay [3] is ilio-spinalis (longissimus dorsi) muscle. The experiment in a line: pH of the ilio-spinalis (longissimus dorsi) muscle at slaughter and after 24 h storage. The note with it: for pH after 24 h / pH at slaughter: ilio-spinalis muscle, mean ± SD of 20 determinations; for pH after 24 h: after 24 hours storage at +4° C.; for pH at slaughter: measured immediately; for pH after 24 h, value in brackets relative to group A (100) / pH at slaughter, value in brackets relative to group A (100): index. As to the method: as §1, §2, §3, §4, §5, §6

Assay [4] has as its system growing-fattening pig. Kind of assay: Carcass cold yield after long-term dietary supplementation of growing-fattening pigs. Conditions: for carcasses' cold yield, value in brackets relative to group A (100): index, group A (2000 IU/kg D3) = 100; for carcasses' cold yield: pigs fed supplemented diet (2000 IU/kg D3 or 50 μg/kg 25-OH D3), carcass weighed after 24 h at +4° C., mean ± SD of 20 determinations. As to the method:
as §1, §2, §3, §4
At the end of the experiment, all animals were randomly divided into four different lots and assigned to one slaughter campaign: days 84th, 85th, 86th and 87th. Animals of each lot were fasted for 12 hours and weighed just before they were slaughtered after tranquilization and stunning. The carcasses were sawed longitudinally following the spinal canal and weighed after 24 hours storage at +4° C. to estimate the carcasses' cold yield.
as §6

Where [5] appears, read: dietary supplementation vs. vitamin D3 control group.

Experimental findings from patent US20140221324A1, “COMPOSITION FOR THE REDUCTION OF DRIP LOSSES IN PORK” (DSM IP ASSETS B.V., priority 2008, published 2014) are described below.

`C=C1CC[C@H](O)C/C1=C/C=C1\CCC[C@]2(C)[C@@H]([C@H](C)CCCC(C)(C)O)CC[C@@H]12` [25-OH D3, 25-hydroxycholecalciferol]: in assay [1], the “Drip loss by water recovery” value worked out at 0.45 ± 0.23%; the “Drip loss by weight difference” value was 1.51 ± 0.28%; the “Drip loss by water recovery, value in brackets relative to group A (100)” value is reported as “(58)”; the “Drip loss by weight difference, value in brackets relative to group A (100)” value is given as “(78)”. In assay [1] (vs. control group), the “mass lost from muscular segments (in words)” value is reported as “less mass was lost” and the “water volumes recovered from muscular segments (in words)” value is “clearly smaller water volumes were recovered”. For the same compound, the “effect on the lean/fat ratio of the carcasses (in words)” value in assay [2] (setting [5]) is recorded as “no positive effects”. In addition, in assay [2], the “carcasses' lean/fat ratio, value in brackets relative to group A (100)” value was “(99)” and the “carcasses' lean/fat ratio” value is reported as 67.70 ± 2.99%. In addition, the “pH values immediately after slaughter and after 24 hours storage compared to control group (in words)” value in assay [3] (ilio-spinalis muscle segments) is on record as “similar”. Besides, in assay [3], the “pH after 24 h” value is reported as 5.51 ± 0.04; the pH at slaughter came out at 5.89 ± 0.16; the “pH after 24 h, value in brackets relative to group A (100)” value is reported as “(100)”; the “pH at slaughter, value in brackets relative to group A (100)” value is “(101)”. For the same compound, the “effect on the cold yield of the carcasses (in words)” value in assay [4] (setting [5]) is on record as “no positive effects”. Moreover, in assay [4], the “carcasses' cold yield, value in brackets relative to group A (100)” value is “(99)” and the “carcasses' cold yield” value is 81.11 ± 1.71 % of live weight.
In the case of `C=C1CC[C@H](O)C/C1=C/C=C1\CCC[C@]2(C)[C@@H]([C@H](C)CCCC(C)C)CC[C@@H]12` [D3, vitamin D3], in assay [1], the “Drip loss by water recovery” value was 0.78 ± 0.74^(1) %; the “Drip loss by weight difference” value is recorded as 1.94 ± 0.85^(1) %; the “Drip loss by water recovery, value in brackets relative to group A (100)” value is “(100)”; the “Drip loss by weight difference, value in brackets relative to group A (100)” value was “(100)”. Moreover, in assay [2], the “carcasses' lean/fat ratio, value in brackets relative to group A (100)” value is “(100)” and the “carcasses' lean/fat ratio” value was 68.42 ± 2.26^(1) %. In assay [3], the “pH after 24 h” value is reported as 5.49 ± 0.05^(1); the pH at slaughter is listed as 5.85 ± 0.21^(1); the “pH after 24 h, value in brackets relative to group A (100)” value was “(100)”; the “pH at slaughter, value in brackets relative to group A (100)” value is reported as “(100)”. Also, in assay [4], the “carcasses' cold yield, value in brackets relative to group A (100)” value is “(100)” and the “carcasses' cold yield” value is 81.85 ± 0.76^(1) % of live weight.
